Where two headings read alike, the source gives them in different places.
What was measured:
[1] = Maximal tolerance dose (MTD) experiment; type: in vivo, ICR mice; conditions: for Effect on animal body weight: after intravenous injection in mice; for Gross necropsy of the surviving animals: after the recovery period; for MTD at 5 days: both sexes, ICR, mouse, in vivo, iv; for Average food intake vs normal mice: each administration group
Method: 18 ICR mice, 9 females/9 males, were selected for the experiment. According to gender and body weight, the mice were randomly divided into a 10 mg/kg group, a 20 mg/kg group, and a 40 mg/kg group of the S-configuration of compound 01, with 3 females/3 males in each group. By intravenous injection, the 10 mg/kg group of the S-configuration of compound 01 was administered with 1 mg/ml of the administration concentration, 10 ml/kg of the administration volume, and 10 mg/kg of the dose. The 20 mg/kg group containing the S-configuration of compound 01 was administered with 2 mg/ml of the administration concentration, 10 ml/kg of the administration volume, and 20 mg/kg of the dose. The 40 mg/kg group containing the S-configuration of compound 01 was administered with 4 mg/ml of the administration concentration, 10 ml/kg of the administration volume, and 40 mg/kg of the dose. The mice was administered once a day for 5 consecutive days, and recovered for 2 weeks after the last administration. The mice were closely observed for 2 hours after administration of the daily drug. The mice were observed twice a day in the morning and afternoon on the non-administration day. During the experiment, body weight and food intake were measured twice a week. The dead animals and all the survival animals were subjected to gross necropsy on the 14th day after the last administration. The diseased organic were grossly necropsied for histopathological examination.
18 ICR mice, 9 females/9 males, were selected for the experiment. According to gender and body weight, the mice were randomly divided into a 10 mg/kg group, a 20 mg/kg group, and a 40 mg/kg group of the R-configuration of compound 01, with 3 females/3 males in each group. By intravenous injection, the 10 mg/kg group of the R-configuration of compound 01 was administered with 1 mg/ml of the administration concentration, 10 ml/kg of the administration volume, and 10 mg/kg of the dose. The 20 mg/kg group of the R-configuration of compound 01 was administered with 2 mg/ml of the administration concentration, 10 ml/kg of the administration volume, and 20 mg/kg of the dose. The 40 mg/kg group of the R-configuration of compound 01 was administered with 4 mg/ml of the administration concentration, 10 ml/kg of the administration volume, and 40 mg/kg of the dose. The mice was administered once a day for 5 consecutive days, and recovered for 1 week after the last administration. […] To find the maximum tolerated dose, a second cycle of dosing was required. The doses were adjusted and administered for 5 consecutive days.
The mice were closely observed for 2 hours after administration of the daily drug. The mice were observed twice a day in the morning and afternoon on the non-administration day. During the experiment, body weight and food intake were measured twice a week. The dead animals and all the survival animals were subjected to gross necropsy on the 14th day after the last administration. The diseased organic were grossly necropsied for histopathological examination.

H460 cell line = experiment: Hypoxia-dependent cytotoxicity experiment (2 hours exposure, air or N2, CTG); type: cell-based; conditions: Homo sapiens, then 3 days
Method: To determine the effect of the compounds of the present disclosure on cancer cell proliferation, these compounds were tested for cancer cell anti-proliferative activity in a porous CTG-based assay. Cell growth was compared in the present (treatment groups) and the absence of the test compound. 10,000 cells/well/495 μL of medium was used to test the following cell line, a human tumor cell line of H460 non-small cell lung cancer. The cells were seeded on glass-inserts located in each well of 24-well plates with a density and medium as specified above. 24 hours later, the plates were divided into 2 groups, hypoxia (using N2) group and air group. TH-302 at the concentrations from 100, 10, 0.1 to 0.01 μM, and the test compounds at the concentrations from 10, 1, 0.1, 0.01, 0.001 to 0.0001 were added to each well (500 μL volume) of the treatment groups. The final DMSO concentration in each well was lower than or equal to 1%. The cells in the hypoxia group were incubated for 2 hours in an ELECTROTEK hypoxia workstation. The cells in the air group were incubated for 2 hours in a standard culture incubator. 2 hours later, the test compounds were removed from each well. The cells were washed with 500 μL of medium and incubated in 500 μL of fresh medium for 3 days. 3 days later, 200 μL of medium per well was discarded. 60 μL of CTG was added to the wells, and the plates were placed at room temperature for 15 minutes in the dark. 100 μL of medium from each well of the 24-well plates was transferred to 96-well plates. The chemiluminescence signal values were read with an M5 full-band multi-mode-function microplate reader, and integration=750 ms. The compounds of control 1 and control 2 were used as controls.

[2] = system: H460 non-small cell lung cancer; experiment: Cytotoxicity test of human tumor cell line in vitro (CTG, 72 hours); type: cell-based; conditions: Homo sapiens, NCI-H460; H460, 72 hours exposure
Method: IC50 values were obtained by the following methods. The cancer cells were exposed to various concentrations of compounds for 72 hours. Following by washing steps, fresh medium was added to allow the growth of the cancer cells. The cancer cells were stained to obtain cell viability. Then, comparisons were made with the medium-only control.
Specifically, the exponentially growing cells were seeded in 96-well plates at a density of 2×10^3 cells/well, and 100 μL/well. The cells were incubated for 24 hours at 37° C., in 5% CO2, in 95% air, and 100% relative humidity. Next, 99 μL of culture medium was added. The compounds were dissolved in 100% DMSO at 200 times the desired final test concentration. Upon addition of compounds, the compounds were further diluted to 4 times the desired final concentration with a complete medium. Aliquots of 1 μL of compounds at specific concentration were added to the micro-wells containing 199 μL of medium to obtain the final compound concentrations as reported. After the compounds were added, the plates were incubated for an addition 72 hours at 37° C., in 5% CO2, in 95% air, and 100% relative humidity.
The plates to be test containing the cells were equilibrated at room temperature for 30 minutes, and 100 μL of medium per well was discarded. 100 μL of CTG reagent (CelltiterGlo Kit) was added to each well. The plates were placed in a fast-shaker to shake for 2 minutes, and placed at room temperature for 30 minutes in the dark. Chemoluminescence signal values were read with Envision instrument.

P-glycoprotein [3] = target: T1, P-glycoprotein (Homo sapiens, UniProt P08183); design: expressed in transfected cells; host or cells: MDCKII-MDR1 (MDCKII canine kidney cells); conditions: cited from earlier work
P-glycoprotein [4] = target: T1, P-glycoprotein; experiment: in vitro; conditions: MDCK-MDR1
Method: MDCKII-MDR1 cells were incubated in cell culture flasks. The incubator was set at 37° C., 5% CO2, and a guaranteed relative humidity of 95%. When the cells reached 70 to 90% confluence, the cells may be seeded to transwells.
50 μL of the cell suspensions were added to the apical chambers of each well of the 96-well transwells at a final seeding density of 5.45×10^5 cells/cm^2.
MDCKII-MDR1 cells may be fully confluent and differentiated after 4 to 8 days of incubation. At this time, the cells may be applied to penetration test. The monolayer membrane resistance was measured with a resistance meter (Millipore), and the resistance per well was recorded. After the test, the transwells were returned to the incubator.
The transwells with MDCKII-MDR1 cells were taken from the incubator. The cell monolayers were rinsed twice with buffer and incubated at 37° C. for 30 minutes.
The rate of the compounds from an apical end to a basolateral end was determined. 75 μL of the buffer containing the test sample was added to each well of the apical chambers (apical end), and 235 μL of the buffer was added to each well of the basolateral chambers (basolateral end).
The rate of the compounds transporting from the basolateral end to the apical end was determined. 75 μL of the buffer was added to the apical chambers (apical end), and 235 μL of the buffer containing the test sample was added to the basolateral chamber (basolateral end).
After the apical chambers and the basolateral chambers were combined respectively, the transwells were incubated at 37° C. for 2 hours.
After incubation, 50 μL of the sample from each well of the apical chambers and the basolateral chambers of the transwells was transferred to new sample tubes respectively. 200 μL of acetonitrile (100 nM of Alprazolam, 200 nM of Labetalol, 200 nM of caffeine, and 2 μM of Ketoprofen) as an internal standard was added to the sample tubes, vortexed for 10 minutes, and centrifuged at 3220 g for 30 minutes. 100 μL of the supernatant was taken and diluted with an equal volume of water for LC-MS/MS analysis. Each sample was incubated in triplicate.
Peak-areas were calculated from ion chromatography results. The apparent permeability coefficient (Papp, unit: cm/s×10-6) of the compounds was calculated by the following formula.
In the formula, VA was the volume of the solution at the acceptor end (Ap→B1 was 0.235 mL, and B1→Ap was 0.075 mL), Area was the membrane area (0.143 cm^2) of 96-well transwell, time was the incubation time (unit: s), [drug]acceptor referred to the drug concentration of the acceptor end after incubation, and [drug]initial,donor referred to the initial concentration of the donor end before incubation.
Efflux ratio was calculated with the following formula.
In the formula, Papp(B_A) was the apparent permeability coefficient from the basolateral end to the apical end, and Papp(A-B) was the apparent permeability coefficient from the apical end to the basolateral end.
The recovery rate was calculated with the following formula.
In the formula, VA was the solution volume of the acceptor end (unit: mL), VD was the solution volume of the donor end (unit: mL), [drug]acceptor referred to the drug concentration of the acceptor end after incubation, and [drug]initial,donor referred to the initial concentration of the donor end before incubation.

[5] = ICR mice, intravenous injection, once a day for 5 consecutive days, read-out: Maximum tolerated dose / MTD result
[6] = NCI-H460, H460, air, read-out: Normoxia: IC50
[7] = NCI-H460, H460, hypoxia (N2), read-out: N2: IC50

T1 sequence (P08183 whole entry): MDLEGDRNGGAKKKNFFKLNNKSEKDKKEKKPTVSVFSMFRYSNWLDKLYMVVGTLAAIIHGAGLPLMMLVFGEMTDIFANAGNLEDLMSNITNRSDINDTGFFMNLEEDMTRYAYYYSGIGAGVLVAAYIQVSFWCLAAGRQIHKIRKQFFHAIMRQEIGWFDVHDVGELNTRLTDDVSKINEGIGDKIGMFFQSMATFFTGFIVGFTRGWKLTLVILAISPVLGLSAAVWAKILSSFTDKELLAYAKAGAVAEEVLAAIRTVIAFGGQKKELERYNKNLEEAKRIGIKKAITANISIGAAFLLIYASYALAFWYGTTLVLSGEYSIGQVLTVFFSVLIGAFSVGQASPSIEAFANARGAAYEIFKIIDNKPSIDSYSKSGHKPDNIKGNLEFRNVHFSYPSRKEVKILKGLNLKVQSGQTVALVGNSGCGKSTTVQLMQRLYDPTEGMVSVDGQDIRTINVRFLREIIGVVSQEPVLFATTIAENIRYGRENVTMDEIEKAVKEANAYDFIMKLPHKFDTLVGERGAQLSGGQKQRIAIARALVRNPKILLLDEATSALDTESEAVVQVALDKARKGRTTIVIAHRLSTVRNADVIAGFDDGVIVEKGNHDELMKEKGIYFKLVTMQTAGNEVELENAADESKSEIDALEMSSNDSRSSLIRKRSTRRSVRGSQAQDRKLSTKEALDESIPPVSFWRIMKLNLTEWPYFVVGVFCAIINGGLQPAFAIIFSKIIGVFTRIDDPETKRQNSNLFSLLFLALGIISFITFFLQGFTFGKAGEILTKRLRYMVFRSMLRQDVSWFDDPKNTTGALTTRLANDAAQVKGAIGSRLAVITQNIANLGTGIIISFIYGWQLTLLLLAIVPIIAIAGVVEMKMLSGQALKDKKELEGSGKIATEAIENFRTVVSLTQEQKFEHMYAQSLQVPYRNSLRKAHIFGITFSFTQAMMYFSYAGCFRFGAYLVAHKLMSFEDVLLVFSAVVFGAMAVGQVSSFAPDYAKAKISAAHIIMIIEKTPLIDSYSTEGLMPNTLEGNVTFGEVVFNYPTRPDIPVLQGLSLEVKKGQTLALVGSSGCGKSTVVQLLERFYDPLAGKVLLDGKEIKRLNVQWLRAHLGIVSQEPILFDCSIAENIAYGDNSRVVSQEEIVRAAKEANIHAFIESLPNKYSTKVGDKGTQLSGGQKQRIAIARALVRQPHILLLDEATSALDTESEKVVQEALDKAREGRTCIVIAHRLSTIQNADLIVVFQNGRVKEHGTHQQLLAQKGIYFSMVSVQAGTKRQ

Structure (SMILES): O=[N+]([O-])c1ccc([C@@H](OP(=O)(N2CC2)N2CC2)C(F)(F)F)c2ccccc12 [R-configuration of compound 01]
- Animal death after the first 5 consecutive days ([1]; 10, 20 and 40 mg/kg groups, first cycle): no animal death
- Animals died ([1]; 10/80 mg/kg group (1st cycle 10 mg/kg, 2nd cycle 80 mg/kg)): 1 of the 6
- Animals died ([1]; 20/60 mg/ml group): 3 of the 6
- Animals died ([1]; 40/40 mg/kg group): 1 of the 6
- Maximum tolerated dose / MTD result ([1]; ICR mice, intravenous injection, once a day for 5 consecutive days): 20 to 40 mg/kg
- Effect on animal body weight [1]: increased slowly
- Gross necropsy of the surviving animals [1]: on obvious gross pathological changes
- MTD at 5 days ([1]; ICR mice, intravenous injection, first cycle, read-out: Maximum tolerated dose): > 40 mg/kg
- MTD at 5 days [1, 5]: 20 to 40 mg/kg
- MTD at 5 days ([1]; ICR mice, intravenous injection, second cycle, read-out: Maximum tolerated dose): < 40 mg/kg
- Average food intake vs normal mice [1]: no significant difference
- Clinical symptoms after administration ([1]; first cycle, 10/80 mg/kg group): in good condition
- Clinical symptoms after administration ([1]; first cycle, 20/60 mg/kg group): unsteady gait
- Clinical symptoms after administration ([1]; first cycle, 40/40 mg/kg): intermittent gait unsteady, accelerated breathing, and increased spontaneous activity
- Clinical symptoms after administration ([1]; second cycle, 10/80 mg/kg): abnormal gait, decreased muscle tension, decreased spontaneous activity, irregular breathing, unsteady gait, accelerated breathing, erect hair, spasm, deepened breathing, prone, and arched back
- Clinical symptoms after administration ([1]; second cycle, 20/60 mg/kg): intermittent deepened breathing, decreased spontaneous activity, unsteady gait, irregular breathing, increased spontaneous activity, accelerated breathing, unsteady gait, and prone
- Clinical symptoms after administration ([1]; second cycle, 40/40 mg/kg): intermittent unsteady gait, deepened breathing, accelerated breathing, increased spontaneous activity, and abnormal gait

Structure (SMILES): CC(OP(=O)(N1CC1)N1CC1)c1ccc([N+](=O)[O-])c2ccccc12 (centres unmarked) [Compound 26]
- IC50 (H460 cell line; [6]): 0.0376 µM
- IC50 (H460 cell line; [7]): < 0.0098 µM
- IC50 [2]: 0.092 µM

Structure (SMILES): O=[N+]([O-])c1ccc(C(OP(=O)(N2CC2)N2CC2)C(F)(F)F)cc1 (centres unmarked) [Control 2, reference compound]
- IC50 (H460 cell line; [6]): 15.6 µM
- IC50 (H460 cell line; [7]): 7.08 µM
- IC50 [2]: 0.659 µM

Structure (SMILES): O=[N+]([O-])c1c(COP(=O)(N2CC2)N2CC2)ccc2ccccc12 [Compound 03]
- IC50 (H460 cell line; [6]): 10 µM
- IC50 (H460 cell line; [7]): 0.634 µM
- IC50 [2]: 0.806 µM

Structure (SMILES): Cc1ccc(NC(=O)c2ccc(CN3CCN(C)CC3)cc2)cc1Nc1nccc(-c2cccnc2)n1 [Imatinib, reference compound]
- P-gp substrate (known / earlier data and literature) (P-glycoprotein [3]): known P-gp substrates
- Papp (A-B) (P-glycoprotein [4]): 21.94 10^−6, cm/s
- Papp (B-A) (P-glycoprotein [4]): 18.69 10^−6, cm/s
- Papp A→B at 2 h (P-glycoprotein [4]; dog): 2.24 ×10⁻⁶ cm/s
- Papp B→A at 2 h (P-glycoprotein [4]; dog): 24.1 ×10⁻⁶ cm/s

Structure (SMILES): O=[N+]([O-])c1ccc([C@H](OP(=O)(N2CC2)N2CC2)C(F)(F)F)c2ccccc12 [S-configuration of compound 01]
- Clinical symptoms after administration ([1]; 10 mg/kg group and 20 mg/kg group): in good condition
- Clinical symptoms after administration ([1]; 40 mg/kg group): unsteady gait, deepened breathing, accelerated breathing, and decreased spontaneous activity
- Animals died ([1]; 40 mg/kg group, i.v., 5 consecutive days): 3 of the 6
- Effect on animal body weight [1]: increased slowly
- Gross necropsy of the surviving animals [1]: on obvious gross pathological changes
- MTD at 5 days [1, 5]: 20 mg/kg
- Average food intake vs normal mice [1]: no significant difference

Reference: patent US20230026163A1, “ANTICANCER COMPOUND AND MEDICAL USE THEREOF” (ASCENTAWITS PHARMACEUTICALS, LTD., priority 2019, published 2023)
